The record followed here is publication PMC12723449, “From Pharmacophore to Warhead: NAD^+‐Targeting Triazoles as Mechanism‐Based Sirtuin Inhibitors” (Angewandte Chemie (International Ed. in English), 2025).

The structures appear in SMILES notation.

Assay [1] has as its target T1, SIRT2 (Homo sapiens, UniProt Q8IXJ6).
T1 construct: For assay experiments, strep-tagged human SIRT1134−747 and SIRT256-356 were expressed and purified as previously; Strep-tag; made in house; host or cells: E. coli BL21 Star (DE3)
T1 sequence (Q8IXJ6 56-356 limits assumed): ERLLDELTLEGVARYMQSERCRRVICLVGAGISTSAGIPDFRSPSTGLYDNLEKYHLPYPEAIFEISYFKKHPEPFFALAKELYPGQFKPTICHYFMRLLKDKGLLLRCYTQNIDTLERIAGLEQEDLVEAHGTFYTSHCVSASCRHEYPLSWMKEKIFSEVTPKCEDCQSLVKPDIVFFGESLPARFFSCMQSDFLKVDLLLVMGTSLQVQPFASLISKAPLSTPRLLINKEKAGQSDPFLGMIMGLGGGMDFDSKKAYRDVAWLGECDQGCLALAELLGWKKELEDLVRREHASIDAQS
Briefly: Fluorescence-based deacetylation assay (ZMAL-assay), SIRT2. The class given is biochemical. The following applies: 37 °C, assay limit 0.10 µM, read-out: SIRT2 (deac.) IC50. As for the experimental part:
Determination of IC50 values (SIRT1, SIRT2, SIRT3) via fluorescence-based deacetylation assay […]
The fluorescence-based deacetylation assay was conducted in a black 384-well microplate (OptiPlate-384 F, PerkinElmer) with a total volume of 30 µL per well and a final DMSO concentration of 2% (v/v) according to a […]
concentration of 100 nM) in assay buffer (50 mM Tris, 137 mM NaCl, 2.7 mM KCl, 1m MgCl2, 0.01% Tween, 0.05 mg/mL BSA, 0.2 mM TCEP, pH 8.0), 5 µL of substrate (ZMAL, final concentration of 10.5 µM), 5 µL of NAD+ (final concentration of 500 µM) and 10 µL of inhibitor solution (final concentration of 30 µM – 0.014 µM, serial 1:3 dilutions) was incubated at 37 °C and 300 rpm for 4 h. A solution of trypsin (final concentration of 0.5 mg/mL) and nicotinamide (final concentration of 4 mM) was added and incubated at 37 °C and 300 rpm for 30 min to stop the reaction. Samples with 2% (v/v) DMSO instead of inhibitor were prepared as a positive control, and samples with 2% (v/v) DMSO instead of SIRT enzyme were prepared as a negative control. Fluorescence intensity was measured with a microplate reader (λEx = 380-10 nm, λEm = 460 nm, BMG POLARstar Optima, BMG Labtech, Germany). IC50 values were then determined using a nonlinear regression fit with Origin Pro 2019 software. All experiments were performed at least in duplicates. […]

The target of assay [2] is T1, SIRT2. Nature of the assay: Fluorescence polarization assay (FPA). Format: binding. Conditions: with versus without NAD+. As for the experimental part: Protein expression and purification for assays and crystallization
For assay experiments, strep-tagged human SIRT1134−747 and SIRT256-356 were expressed and purified as previously described.[2,4] Briefly, chemically competent E. coli BL21 Star (DE3) cells were transformed with pET30S-hSIRT1134−747 or pET30S-hSIRT256−356 plasmids. Cell cultures were grown in 2× YT medium (5 g/L NaCl, 16 g/L tryptone, 10 g/L yeast extract) supplemented with 50 μg/mL kanamycin at 37 °C reaching an OD600 of 0.6 − 0.7.
Protein expression of SIRT1134−747 and SIRT256−356 was induced with 1 mM IPTG (isopropyl β- D-1-thiogalactopyranoside), followed by incubation for 16 h at 20 °C. […]
Protein purity and identity were confirmed by SDS-PAGE and protein concentration was determined using the BCA assay with BSA as a standard. […] […]
A solution of 10 µL SIRT2 (final concentration of 6.0 µM) and SYPRO Orange (5x, Sigma-Aldrich, Germany) in assay buffer (25 mM Tris-HCl, 150 mM NaCl, 1 mM DTT, pH 8.0) was mixed with 10 µL of compound and incubated at 25 °C and 350 rpm for 5 min. […] Fluorescence intensity was recorded during a temperature gradient of 1°C per 20 s from 25 to 95°C using a real-time PCR machine (C1000 Touch™ Thermal Cycler, CFX96™ Real-Time System, BioRad, USA). […]
(Polarisation of emitted light reports the rotation of a fluorescent probe.)

As to `Cc1cc(C)nc(SCC(=O)Nc2ncc(Cc3cccc(OCc4c[nH]nn4)c3)s2)n1` [Compound 7], at SIRT2 [1], the concentration for half-maximal inhibition (IC50) (as a rule, the concentration that gives 50% inhibition) was 7.8 ± 2.1 µM. Besides, the “change of affinity upon NAD+ addition (FP)” value at SIRT2 [2] is on record as “increased affinities upon NAD+ addition”.
Take `COCCn1cc(COc2cccc(Cc3cnc(NC(=O)CSc4nc(C)cc(C)n4)s3)c2)nn1` [Compound 1, reference compound]: the “change of affinity upon NAD+ addition (FP)” value at SIRT2 [2] is “increased affinities upon NAD+ addition”.
`CCCCCCCCCCCCc1cn(CCCC[C@H](NC(=O)[C@H](CCCCN)NC(=O)[C@@H]2CCCN2C(=O)[C@H](CC(C)C)NC(=O)[C@H](C)NC(=O)[C@H](CCC(=O)O)NC(C)=O)C(=O)N[C@H](C(=O)NCC(=O)NCC(N)=O)[C@@H](C)O)nn1` [Compound 6]: the half-inhibitory concentration (IC50) at SIRT2 [1] is below 0.1 µM.
